From patent US11136348B2, “Furostan-3-ol derivatives as skeletal muscle hypertrophic agents” (EMMYON, INC., priority 2015, dated 2021) come the findings set out here.

One assay concerns C2C12 skeletal myotubes. Kind of assay: Total cellular protein content in C2C12 skeletal myotubes (BCA). It is filed as cell-based, Mouse. To be noted: 48 h incubation, vs vehicle (0.1% DMSO); for Percent change in total protein at 0.03 µM / Percent change in total protein at 0.1 µM / Percent change in total protein at 0.3 µM / Percent change in total protein at 1 µM / Percent change in total protein at 3 µM: Mus musculus, C2C12. On the procedure: The compounds were tested in a well-established in vitro model of skeletal muscle, namely fully differentiated, post-mitotic C2C12 skeletal myotubes. Mouse C2C12 myoblasts may be obtained from ATCC (CRL-1772) and maintained at 37° C. and 5% CO2 in Dulbecco's modified Eagle's medium (ATCC #30-2002) containing antibiotics (100 units/mL penicillin, […] streptomycin sulfate) and 10% (v/v) fetal bovine serum (FBS). Myoblasts were set up for experiments on day 0 in 6-well plates at a density of 2.5×10^5 cells/well. On day 2, myoblasts were induced to differentiate into myotubes by replacing 10% FBS with 2% horse serum (HS). On day 7, myotubes were rinsed once with PBS, and then 2% HS was replaced with 10% FBS. The vehicle (0.1% DMSO) or varying concentrations of test compound were added directly to the media. After 48 h incubation, myotube protein content and size were measured.
To determine myotube protein content, myotubes were washed with ice cold PBS, scraped into lysis buffer (10 mM Tris-HCl, pH 7.6, 100 mM NaCl, and 1% (w/v) SDS, complete Mini protease inhibitor cocktail (Roche), and a 1:100 dilution of phosphatase inhibitor cocktail 3 (Sigma)), and then lysed with 10 passes through a 22-gauge needle. An aliquot of each myotube lysate sample was then used to determine protein concentration by the BCA kit (Pierce). […] To determine myotube size, myotubes were subjected to immunofluorescence staining with anti-troponin primary antibody and a fluorescent secondary antibody. Myotubes were then imaged on an Olympus IX-71 microscope equipped with a DP-70 camera and epifluorescence filters. Image analysis was performed using ImageJ software.

The subject of assay [1] is Male C57BL/6 mice, tibialis anterior (TA) muscle. As to the kind of experiment: Mouse model of muscular atrophy: unilateral tibialis anterior immobilization. The assay is classed as in vivo. To be noted: 10 mg/kg i.p. twice a day for 7 days; 6 days TA immobilization; immobilized TA weight normalized to contralateral mobile TA; 12-13 mice. The procedure:
Compounds of the invention were also tested in vivo in an established mouse model for muscular atrophy. Male C57BL/6 mice (8-10 weeks old) were administered i.p. injections of vehicle (corn oil) or 10 mg/kg test compound twice a day for 7 days. After 1 day of i.p. injections, one tibialis anterior (TA) muscle in each mouse was immobilized with a metal clip to induce skeletal muscle atrophy, as described previously (Dyle et al., Journal of Biological Chemistry 289: 14913-14924, 2014). In each mouse, the contralateral TA muscle remained mobile and served as a non-atrophied intrasubject control. After 7 days of i.p injections (6 days of unilateral TA immobilization), bilateral TA muscles were harvested and weighed. In each mouse, the amount of skeletal muscle loss in the immobilized TA muscle was determined by normalizing the weight of the immobilized TA muscle to the weight of the contralateral mobile (control) TA muscle. The data below are means ±SEM from 12-13 mice per condition. table: […]

`CC1=C(CC[C@H](C)CNC(=O)OCC(C)C)O[C@H]2C[C@H]3[C@@H]4CC[C@H]5C[C@@H](O)CC[C@]5(C)[C@H]4CC[C@]3(C)[C@@H]12` [Example 6, Isobutyl ((S)-4-((2aS,4S,6aS,6bS, 8aS, 8bS,11aS,12aS,12bR)-4-hydroxy-6a, 8a,9-trimethyl-2,2a,3,4,5,6,6a,6b,7,8,8a, 8b,11a,12,12a,12b-hexadecahydro-1H-naphtho[2′,1′:4,5]indeno[2,1-b]furan-10-yl)-2-methylbutyl)carbamate]: the Percent change in total protein at 0.03 µM with C2C12 skeletal myotubes (0.03 μM) is 1.1 ± 0.8%. The Percent change in total protein at 0.1 µM in the assay on C2C12 skeletal myotubes (0.1 μM) was -0.1 ± 3.1%. Besides, in the assay with C2C12 skeletal myotubes (0.3 μM), the Percent change in total protein at 0.3 µM came out at 4.2 ± 3.2%. In addition, the Percent change in total protein at 1 µM with C2C12 skeletal myotubes (1 μM) came out at 10.9 ± 3.1%. Besides, in the assay on C2C12 skeletal myotubes (3 μM), the Percent change in total protein at 3 µM came to 9 ± 1.6%.

Consider `CC1=C(CC[C@H](C)CNC(C)C(F)F)O[C@H]2C[C@H]3[C@@H]4CC[C@H]5C[C@@H](O)CC[C@]5(C)[C@H]4CC[C@]3(C)[C@@H]12` (stereo partly drawn) [Example 9, (2aS,4S,6aS,6bS,8aS,8bS,11aS,12aS,12bR)-10-((3S)-4-((1,1-Difluoropropan-2-yl)amino)-3-methylbutyl)-6a,8a,9-trimethyl-2,2a,3,4,5,6,6a,6b,7,8,8a,8b,11a,12,12a,12b-hexadecahydro-1H-naphtho[2′,1′:4,5]indeno[2,1-b]furan-4-ol], for which, in the assay on C2C12 skeletal myotubes (0.03 μM), the Percent change in total protein at 0.03 µM is -1.5 ± 2.3%. Also, in the assay on C2C12 skeletal myotubes (0.1 μM), the Percent change in total protein at 0.1 µM was found to be 1.2 ± 0.7%. Moreover, the Percent change in total protein at 0.3 µM in the assay with C2C12 skeletal myotubes (0.3 μM) amounted to 8.6 ± 2.5%. Moreover, in the assay on C2C12 skeletal myotubes (1 μM), the Percent change in total protein at 1 µM was 6.2 ± 2.1%. Besides, the Percent change in total protein at 3 µM in the assay with C2C12 skeletal myotubes (3 μM) was determined as 6.9 ± 2.6%.

For `CC1=C(CC[C@H](C)CNC(=O)OC(C)(C)C)O[C@H]2C[C@H]3[C@@H]4CC[C@H]5CC(NCCO)CC[C@]5(C)[C@H]4CC[C@]3(C)[C@@H]12` (stereo partly drawn) [Example 10, tert-Butyl ((2S)-4-((2aS,6aS,6bS,8aS,8bS,11aS,12aS,12bR)-4-((2-hydroxyethyl)amino)-6a,8a,9-trimethyl-2,2a,3,4,5,6,6a,6b,7,8,8a,8b,11a,12,12a,12b-hexadecahydro-1H-naphtho[2′,1′:4,5]indeno[2,1-b]furan-10-yl)-2-methylbutyl)carbamate], the Percent change in total protein at 0.03 µM with C2C12 skeletal myotubes (0.03 μM) turned out to be 10.3 ± 2.7%. The Percent change in total protein at 0.1 µM with C2C12 skeletal myotubes (0.1 μM) was determined as 10.6 ± 2.2%. In addition, the Percent change in total protein at 0.3 µM in the assay on C2C12 skeletal myotubes (0.3 μM) turned out to be 15 ± 2.2%. For the same compound, the Percent change in total protein at 1 µM in the assay with C2C12 skeletal myotubes (1 μM) is 12.9 ± 1.6%. In addition, the Percent change in total protein at 3 µM in the assay on C2C12 skeletal myotubes (3 μM) is 16.1 ± 1.6%.

As to `CC(=O)O[C@H]1CC[C@@]2(C)[C@@H](CC[C@@H]3[C@@H]2CC[C@@]2(C)[C@H]3C[C@@H]3OC(CC[C@H](C)CNC(=O)OC(C)(C)C)=C(C)[C@@H]32)C1` [Example 4, (2aS,4S,6aS,6bS,8aS,8bS,11aS,12aS,12bR)-10-((S)-4-((tert-butoxycarbonyl)amino)-3-methylbutyl)-6a,8a,9-trimethyl-2,2a,3,4,5,6,6a,6b,7,8,8a,8b,11a,12,12a,12b-hexadecahydro-1H-naphtho[2′,1′:4,5]indeno[2,1-b]furan-4-yl acetate acetate], in the assay on C2C12 skeletal myotubes (0.03 μM), the Percent change in total protein at 0.03 µM was 4.3 ± 1.6%. Also, the Percent change in total protein at 0.1 µM in the assay with C2C12 skeletal myotubes (0.1 μM) turned out to be 4 ± 2.1%. In addition, in the assay on C2C12 skeletal myotubes (0.3 μM), the Percent change in total protein at 0.3 µM stood at 11.2 ± 2.3%. Besides, in the assay with C2C12 skeletal myotubes (1 μM), the Percent change in total protein at 1 µM came to 13.4 ± 1.5%. Besides, the Percent change in total protein at 3 µM in the assay on C2C12 skeletal myotubes (3 μM) came out at 11.4 ± 2.9%.

Turning to `CC(=O)NC[C@@H](C)CCC1=C(C)[C@H]2[C@H](C[C@H]3[C@@H]4CC[C@H]5C[C@@H](OC(C)=O)CC[C@]5(C)[C@H]4CC[C@@]32C)O1` [Example 1, (2aS,4S,6aS,6bS,8aS,8bS,11aS,12aS,12bR)-10-((S)-4-acetamido-3-methylbutyl)-6a,8a,9-trimethyl-2,2a,3,4,5,6,6a,6b,7,8,8a,8b,11a,12,12a,12b-hexadecahydro-1H-naphtho[2′,1′:4,5]indeno[2,1-b]furan-4-yl acetate], in the assay on C2C12 skeletal myotubes (0.03 μM), the Percent change in total protein at 0.03 µM was 1 ± 1.1%. Besides, in the assay with C2C12 skeletal myotubes (0.1 μM), the Percent change in total protein at 0.1 µM came to 5.6 ± 3.3%. Further, in the assay with C2C12 skeletal myotubes (0.3 μM), the Percent change in total protein at 0.3 µM was determined as 10.7 ± 1.9%. In addition, the Percent change in total protein at 1 µM in the assay on C2C12 skeletal myotubes (1 μM) is 16.7 ± 1.3%. The Percent change in total protein at 3 µM with C2C12 skeletal myotubes (3 μM) turned out to be 18.1 ± 0.5%. Moreover, in assay [1], the “% Muscle Loss (Mean ± SEM)” value is 4.8 ± 1.4%.

Consider `CC1=C(CC[C@H](C)CNC(=O)OC(C)(C)C)O[C@H]2C[C@H]3[C@@H]4CC[C@H]5C[C@@H](O)CC[C@]5(C)[C@H]4CC[C@]3(C)[C@@H]12` [Example 2, tert-Butyl ((S)-4-((2aS,4S, 6aS,6bS, 8aS, 8bS,11aS,12aS,12bR)-4-hydroxy-6a, 8a,9-trimethyl-2,2a,3 ,4,5,6,6a,6b,7,8,8a, 8b,11a,12,12a,12b-hexadecahydro-1H-naphtho[2′,1′:4,5]indeno[2,1-b]furan-10-yl)-2-methylbutyl)carbamate], for which, in the assay on C2C12 skeletal myotubes (0.03 μM), the Percent change in total protein at 0.03 µM was 3.2 ± 2.1%. Moreover, in the assay on C2C12 skeletal myotubes (0.1 μM), the Percent change in total protein at 0.1 µM amounted to 3.2 ± 3%. Also, the Percent change in total protein at 0.3 µM in the assay on C2C12 skeletal myotubes (0.3 μM) amounted to 4.9 ± 3.9%. Also, in the assay on C2C12 skeletal myotubes (1 μM), the Percent change in total protein at 1 µM came to 8.3 ± 3.8%. In addition, the Percent change in total protein at 3 µM in the assay on C2C12 skeletal myotubes (3 μM) worked out at 10.8 ± 3%. In assay [1], the “% Muscle Loss (Mean ± SEM)” value is 8.6 ± 1.8%.

Turning to `CC1=C(CC[C@H](C)CN(C)C)O[C@H]2C[C@H]3[C@@H]4CC[C@H]5C[C@@H](O)CC[C@]5(C)[C@H]4CC[C@]3(C)[C@@H]12` [Example 8, (2aS,4S,6aS,6bS,8aS,8bS,11aS,12aS,12bR)-10-((S)-4-(Dimethylamino)-3-methylbutyl)-6a,8a,9-trimethyl-2,2a,3,4,5,6,6a,6b,7,8,8a,8b,11a,12,12a,12b-hexadecahydro-1H-naphtho[2′,1′:4,5]indeno[2,1-b]furan-4-ol], the Percent change in total protein at 0.03 µM in the assay on C2C12 skeletal myotubes (0.03 μM) was found to be 0.5 ± 2.1%. In addition, the Percent change in total protein at 0.1 µM in the assay with C2C12 skeletal myotubes (0.1 μM) amounted to 5 ± 1.9%. For the same compound, the Percent change in total protein at 0.3 µM with C2C12 skeletal myotubes (0.3 μM) came out at 9.7 ± 0.7%. Moreover, the Percent change in total protein at 1 µM in the assay with C2C12 skeletal myotubes (1 μM) came to 10.7 ± 1.6%. Also, in the assay on C2C12 skeletal myotubes (3 μM), the Percent change in total protein at 3 µM came out at 9.1 ± 1.2%.

For the compound `CC1=C(CC[C@H](C)CN)O[C@H]2C[C@H]3[C@@H]4CC[C@H]5CC(NCCO)CC[C@]5(C)[C@H]4CC[C@]3(C)[C@@H]12.Cl.Cl` (stereo partly drawn) [Example 11, 2-(((2aS,6aS,6bS,8aS,8bS,11aS,12aS,12bR)-10-((S)-4-amino-3-methylbutyl)-6a,8a,9-trimethyl-2,2a,3,4,5,6,6a,6b,7,8,8a,8b,11a,12,12a,12b-hexadecahydro-1H-naphtho[2′,1′:4,5]indeno[2,1-b]furan-4-yl)amino)ethanol dihydrochloride], the “Percent Change in Total Protein” value in the assay on C2C12 skeletal myotubes (0.03 μM) is −1.8 ± 2.0%; with C2C12 skeletal myotubes (0.1 μM), 7.7 ± 1.5 %; in the assay with C2C12 skeletal myotubes (0.3 μM), 6.3 ± 1.9 %; in the assay on C2C12 skeletal myotubes (1 μM), 8.8 ± 2.1 %; with C2C12 skeletal myotubes (3 μM) it was 4.9 ± 1.1 %.

As for `CC1=C(CC[C@H](C)CNC(C)C)O[C@H]2C[C@H]3[C@@H]4CC[C@H]5C[C@@H](O)CC[C@]5(C)[C@H]4CC[C@]3(C)[C@@H]12` [Example 7, (2aS,4S,6aS,6bS,8aS,8bS,11aS,12aS,12bR)-10-((S)-4-(Isopropylamino)-3-methylbutyl)-6a,8a,9-trimethyl-2,2a,3,4,5,6,6a,6b,7,8,8a,8b,11a,12,12a,12b-hexadecahydro-1H-naphtho[2′,1′:4,5]indeno[2,1-b]furan-4-ol], the Percent change in total protein at 0.03 µM in the assay on C2C12 skeletal myotubes (0.03 μM) is -0.9 ± 1.5%. In addition, in the assay on C2C12 skeletal myotubes (0.1 μM), the Percent change in total protein at 0.1 µM stood at 0.5 ± 1.9%. Also, in the assay on C2C12 skeletal myotubes (0.3 μM), the Percent change in total protein at 0.3 µM came to 11.6 ± 2.3%. In the assay on C2C12 skeletal myotubes (1 μM), the Percent change in total protein at 1 µM stood at 11 ± 1.9%. The Percent change in total protein at 3 µM in the assay on C2C12 skeletal myotubes (3 μM) is 12.2 ± 3.2%.
